The values that follow are results of earlier work, collected in patent US10434198B2, “Radiopharmaceutical solutions with advantageous properties” (Sciencons AS, priority 2015, dated 2019).

SMILES strings stand for the structures.

One data set relates to MDA-MB-231 (SA). Particulars: 250 kBq/kg (3.6×10^11 ^223Ra atoms), Suominen et al. 2013.
The conditions of data set [1]: 10 minutes after injection.

`[Cl][223Ra][Cl]` [^223Ra, radium-223 dichloride]: the survival advantage with MDA-MB-231 (SA) is reported as 43%.
`[Ra]` [radium]: the “reduction of radium in blood” value in data set [1] is 88%.
